Measured values taken from US20240400542A1 (University of Virginia Patent Foundation, priority 2021, published 2024).

Target: T1, Phosphotyrosine protein phosphatase (Homo sapiens, UniProt P24666)
T1 construct: endogenous in cells; host or cells: HEK293T
T1 sequence (P24666 1-158): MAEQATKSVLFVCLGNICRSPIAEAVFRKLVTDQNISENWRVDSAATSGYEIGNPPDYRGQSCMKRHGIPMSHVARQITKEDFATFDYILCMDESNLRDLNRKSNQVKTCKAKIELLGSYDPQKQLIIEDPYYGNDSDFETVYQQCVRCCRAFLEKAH
Assay: SILAC competitive chemical proteomic assay (TH211 probe, LC-MS/MS)
Format: cell-based
Conditions: TH207 inhibitor; HEK293T soluble fraction; P24666.3 tyrosine 132
Procedure: The light and heavy proteomes (2.3 mg/mL, 432 μL) prepared from HEK293T cells that were pretreated in situ with vehicle (DMSO) or the inhibitor (2 μM), respectively, at 37° C. for 1 hr followed by probe TH211 treatment (50 μM) for 2 h, were directly were subjected to click reaction with the desthiobiotin-PEG3-azide (10 mM in DMSO, 10 μL, final concentration 200 μM) in the presence of TCEP (50 mM, 10 μL), TBTA (1.7 mM, 33 μL) and CuSO4 (50 mM, 10 μL) at room temperature for 1 hr. The light and the heavy samples were mixed in the chloroform-methanol extraction step. The subsequent steps including reduction with dithiothreitol, alkylation with iodoacetamide, digestion with Trypsin/Lys-C, enrichment with avidin beads were conducted as previously described^26.

**Q.** `Cc1ccc(S(=O)(=O)n2cc(CCN3CCC(=C(c4ccc(F)cc4)c4ccc(F)cc4)CC3)nn2)cc1` [TH207, 4-(Bis(4-fluorophenyl)methylene)-1-(2-(1-tosyl-1H-1,2,3-triazol-4-yl)ethyl)piperidine] was tested. Which “Normalized SILAC ratio (SR), Phosphotyrosine protein phosphatase Y132” value did it give?
**A.** 1.9
